# What was measured:
# Type in all cases: biochemical, Acidicaldus organivorans USBA-GBX-499
# modified esterase 499EST [1] = assay: Effect of organic solvents on the modified esterase; conditions: for % actividad relativa: pNPC8, 55° C., pH 9.0; for esterase activity increased to: solvent at a concentration of 15% and 30%
# Procedure: (§1) The activity of the modified enzyme was determined spectrophotometrically at 405 nm in a range of temperatures between 45 and 75° C., using p-nitro phenyl of other chains C6 to C10 (Sigma-Aldrich) as substrate. One unit of esterase activity was defined as the capacity of the enzyme to release 1 μmol min^−1 of p-nitrophenol under the essay conditions. The molar absorbance coefficient was of 16.900 M^−1 cm^−1. The mixture consisted of 448 μl of the Tris-HCl 50 mM buffer at 9.0 pH that contained 50 μl of p-nitrophenyl diluted in isopropanol and 2 μl of the solution stock of the protein. All the assays were made by triplicate and the average was calculated.
# (§2) The evaluation of metallic, solvent and detergent ions and inhibitors of the modified enzyme was carried out incubating the enzyme in the presence of each of them for one hour at 30° C. The evaluation established the stability of the referenced enzyme at a control for which the enzyme was in absence of the additive. The result was expressed in percentage of residual activity, being 100% the control.
# Effect of organic solvents. The activity of the enzyme was evaluated in presence of different organic solvents. Two concentrations were evaluated, 15 and 30% of 1 butanol, 2 butanol, acetonitrile, acetone, 1-propanol, 2-propanol, methanol, ethanol, glycerol, dimethyl sulfoxide (DMSO), dimethyl formamide (DMF) (Table 3)
# 499EST = assay: Effect of inhibitors on the modified enzyme 499EST; conditions: inhibitor 5 mM; one hour at 30° C.
# Procedure: as §1, §2
# (§3) The effect of the detergents, sodium dodecyl sulfate (SDS), Tween 20, Tween 80, Triton X-100, were evaluated at concentrations of 1 and 5% (v/v) (Table 2). In the evaluations it was determined the effect of inhibitors such phenylmethanesulfonyl fluoride-PMSF, ethylenediaminetetraacetic acid, EDTA, 2-mercaptoethanol (2-ME), dithiothreitol (DTT), the evaluated concentration was of 5 mM.
# modified esterase 499EST [2] = assay: Effect of metallic ions on the activity of the modified esterase 499EST; conditions: for Actividad relativa (%): pNPC8, 55° C., pH 9.0, control without additives = 100%
# Procedure: as §1, §2
# It was evaluated the effect of metallic ions on the enzyme activity. The ions evaluated were: CaCl2, FeCl3, MgCl2, CoCl2, NiCl2, ZnCl2, CuCl2 and MnCl2, the concentrations used were 1 mM and 10 mM. The effect of the ions Fe^3+ was evaluated at concentrations of 0.2 mM-10 mM, and its influence on the thermo stability between 50 and 65° C. (Table 1).
# modified esterase 499EST [3] = assay: Effect of detergents on the modified esterase 499EST; conditions: for % actividad relativa: pNPC8, 55° C., pH 9.0, control without additives = 100%
# Procedure: as §1, §2, §3
molecule,measurement,setting,value
1-butanol,% actividad relativa,modified esterase 499EST [1]; organic solvent 15%,1.5%
same,% actividad relativa,modified esterase 499EST [1]; organic solvent 30%,0.0%
"O[C@H](CS)[C@H](O)CS (racemic) [DTT, dithiothreitol]",inhibition of the enzymatic activity,499EST,totally inhibits
CCCO [1-propanol],% actividad relativa,modified esterase 499EST [1]; organic solvent 15%,26.8%
same,% actividad relativa,modified esterase 499EST [1]; organic solvent 30%,24.81%
CCC(C)O (centres unmarked) [2-butanol],% actividad relativa,modified esterase 499EST [1]; organic solvent 15%,16.3%
same,% actividad relativa,modified esterase 499EST [1]; organic solvent 30%,14.7%
CC(C)O [2-propanol],% actividad relativa,modified esterase 499EST [1]; organic solvent 15%,80.0%
same,% actividad relativa,modified esterase 499EST [1]; organic solvent 30%,31.3%
"CC(C)=O [Acetona, acetone]",% actividad relativa,modified esterase 499EST [1]; organic solvent 15%,72.0%
same,% actividad relativa,modified esterase 499EST [1]; organic solvent 30%,9.7%
"CC#N [Acetonitrilo, acetonitrile]",% actividad relativa,modified esterase 499EST [1]; organic solvent 15%,17.0%
same,% actividad relativa,modified esterase 499EST [1]; organic solvent 30%,0.0%
"[Ca+2].[Cl-].[Cl-] [Ca^2+, CaCl2]",Actividad relativa (%),modified esterase 499EST [2]; ion 1 mM,9%
same,Actividad relativa (%),modified esterase 499EST [2]; ion 10 mM,7%
same,Actividad relativa (%),"modified esterase 499EST [2]; ion 10 mM, listed as Ca^+2",highest enzyme inhibition
"[Cl-].[Cl-].[Co+2] [Co^2+, CoCl2]",Actividad relativa (%),modified esterase 499EST [2]; ion 1 mM,74%
same,Actividad relativa (%),modified esterase 499EST [2]; ion 10 mM,23%
same,Actividad relativa (%),"modified esterase 499EST [2]; ion 10 mM, listed as Co^+2",highest enzyme inhibition
"[Cl][Cu][Cl] [Cu^2+, CuCl2]",Actividad relativa (%),modified esterase 499EST [2]; ion 1 mM,16%
same,Actividad relativa (%),modified esterase 499EST [2]; ion 10 mM,0%
same,Actividad relativa (%),"modified esterase 499EST [2]; ion 10 mM, listed as Cu^+2",highest enzyme inhibition
"CN(C)C=O [DMF, dimethyl formamide]",% actividad relativa,modified esterase 499EST [1]; organic solvent 15%,12.4%
same,% actividad relativa,modified esterase 499EST [1]; organic solvent 30%,12.4%
"C[S+](C)[O-] [DMSO, dimethyl sulfoxide]",% actividad relativa,modified esterase 499EST [1]; organic solvent 15%,180.0%
same,% actividad relativa,modified esterase 499EST [1]; organic solvent 30%,200.2%
same,esterase activity increased to,modified esterase 499EST [1],200%
"O=C(O)CN(CCN(CC(=O)O)CC(=O)O)CC(=O)O [EDTA, ethylenediaminetetraacetic acid]",decrease in the relative enzymatic activity,499EST,9%
"CCO [Etanol, ethanol]",% actividad relativa,modified esterase 499EST [1]; organic solvent 15%,22%
same,% actividad relativa,modified esterase 499EST [1]; organic solvent 30%,12.9%
"[Cl][Fe]([Cl])[Cl] [Fe^3+, FeCl3]",Actividad relativa (%),modified esterase 499EST [2]; ion 1 mM,111%
same,Actividad relativa (%),modified esterase 499EST [2]; ion 10 mM,342%
same,increase of the specific activity of the enzyme,modified esterase 499EST [2]; ion concentration from 2 to 10 mM,up to 3 times
"OCC(O)CO [Glicerol, glycerol]",% actividad relativa,modified esterase 499EST [1]; organic solvent 15%,234.8%
same,% actividad relativa,modified esterase 499EST [1]; organic solvent 30%,250.3%
same,esterase activity increased to,modified esterase 499EST [1],250%
"CO [Metanol, methanol]",% actividad relativa,modified esterase 499EST [1]; organic solvent 15%,3.0%
same,% actividad relativa,modified esterase 499EST [1]; organic solvent 30%,0.0%
"[Cl-].[Cl-].[Mg+2] [Mg^2+, MgCl2]",Actividad relativa (%),modified esterase 499EST [2]; ion 1 mM,76%
same,Actividad relativa (%),modified esterase 499EST [2]; ion 10 mM,3%
same,Actividad relativa (%),"modified esterase 499EST [2]; ion 10 mM, listed as Mg^+2",highest enzyme inhibition
"[Cl][Mn][Cl] [Mn^2+, MnCl2]",Actividad relativa (%),modified esterase 499EST [2]; ion 1 mM,252%
same,Actividad relativa (%),modified esterase 499EST [2]; ion 10 mM,127%
"O=S(=O)(F)Cc1ccccc1 [PMSF, phenylmethanesulfonyl fluoride]",activity detected,499EST,80%
"CCCCCCCCCCCCOS(=O)(=O)[O-].[Na+] [SDS, sodium dodecyl sulfate]",effect of detergent on lipolytic activity,modified esterase 499EST [3]; 1 and 5% (v/v),strongly inhibits
same,% actividad relativa,modified esterase 499EST [3]; detergent 1%,8%
same,% actividad relativa,modified esterase 499EST [3]; detergent 5%,6%
CCCCCCCC/C=C\CCCCCCCC(=O)OCCOCC(OCCO)C1OCC(OCCO)C1OCCO (centres unmarked) [Tween 80],% actividad relativa,modified esterase 499EST [3]; detergent 1%,85%
same,% actividad relativa,modified esterase 499EST [3]; detergent 5%,32%
"[Cl-].[Cl-].[Zn+2] [Zn^2+, ZnCl2]",Actividad relativa (%),modified esterase 499EST [2]; ion 1 mM,190%
same,Actividad relativa (%),modified esterase 499EST [2]; ion 10 mM,21%
same,Actividad relativa (%),"modified esterase 499EST [2]; ion 10 mM, listed as Zn^+2",highest enzyme inhibition
"OCCS [β-mercaptoethanol, 2-mercaptoethanol]",decrease in the relative enzymatic activity,499EST,12%

# Source: US10400224B2, “Enantioselective modified esterase enzyme and method for the production thereof” (CORPORACIÓN CORPOGEN, priority 2014, dated 2019)
